Source: patent US20140120083A1, “TREATMENT OF CANCERS USING PI3 KINASE ISOFORM MODULATORS” (INFINITY PHARMACEUTICALS, INC., priority 2012, published 2014)

What was measured:
PI3K γ = molecular target: T1, PI3K γ (Homo sapiens, UniProt P48736); test: In vitro IC50, PI3K γ; assay type: biochemical
T1 construct: purchased Sigma
Description: (§1) An exemplary system is PI 3-Kinase (human) HTRF™ Assay from Upstate.

PI3K δ = PI3K δ (Homo sapiens, UniProt O00329); test: In vitro IC50, PI3K δ; assay type: biochemical; set-up: purchased Upstate
Chain of PI3K δ (O00329 whole entry): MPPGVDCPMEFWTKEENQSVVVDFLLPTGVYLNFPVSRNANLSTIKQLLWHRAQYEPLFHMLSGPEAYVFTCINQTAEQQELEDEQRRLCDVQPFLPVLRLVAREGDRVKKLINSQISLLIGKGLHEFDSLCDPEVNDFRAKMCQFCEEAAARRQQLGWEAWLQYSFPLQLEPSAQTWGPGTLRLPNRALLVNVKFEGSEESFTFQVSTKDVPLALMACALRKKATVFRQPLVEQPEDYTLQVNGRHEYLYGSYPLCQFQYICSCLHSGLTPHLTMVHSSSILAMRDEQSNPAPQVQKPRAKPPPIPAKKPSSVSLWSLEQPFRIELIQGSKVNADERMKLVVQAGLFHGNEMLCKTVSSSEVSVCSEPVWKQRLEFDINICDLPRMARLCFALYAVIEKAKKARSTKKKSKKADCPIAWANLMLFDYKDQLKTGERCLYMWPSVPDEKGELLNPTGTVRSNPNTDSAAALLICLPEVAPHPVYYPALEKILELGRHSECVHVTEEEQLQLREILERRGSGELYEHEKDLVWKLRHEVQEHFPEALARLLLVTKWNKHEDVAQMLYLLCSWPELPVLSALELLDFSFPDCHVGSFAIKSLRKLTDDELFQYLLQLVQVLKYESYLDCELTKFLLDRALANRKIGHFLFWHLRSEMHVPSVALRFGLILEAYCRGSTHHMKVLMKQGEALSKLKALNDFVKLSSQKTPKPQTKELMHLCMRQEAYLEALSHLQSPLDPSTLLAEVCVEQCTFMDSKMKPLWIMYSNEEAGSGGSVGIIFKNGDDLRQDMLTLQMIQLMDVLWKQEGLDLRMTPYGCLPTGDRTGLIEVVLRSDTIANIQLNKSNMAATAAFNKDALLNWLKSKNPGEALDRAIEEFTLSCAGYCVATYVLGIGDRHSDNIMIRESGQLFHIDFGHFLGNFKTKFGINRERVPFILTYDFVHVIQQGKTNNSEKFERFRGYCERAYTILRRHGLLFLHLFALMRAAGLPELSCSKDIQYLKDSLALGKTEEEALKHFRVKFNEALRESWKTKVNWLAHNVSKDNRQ
Chain of PI3K δ (P27986 whole entry partner): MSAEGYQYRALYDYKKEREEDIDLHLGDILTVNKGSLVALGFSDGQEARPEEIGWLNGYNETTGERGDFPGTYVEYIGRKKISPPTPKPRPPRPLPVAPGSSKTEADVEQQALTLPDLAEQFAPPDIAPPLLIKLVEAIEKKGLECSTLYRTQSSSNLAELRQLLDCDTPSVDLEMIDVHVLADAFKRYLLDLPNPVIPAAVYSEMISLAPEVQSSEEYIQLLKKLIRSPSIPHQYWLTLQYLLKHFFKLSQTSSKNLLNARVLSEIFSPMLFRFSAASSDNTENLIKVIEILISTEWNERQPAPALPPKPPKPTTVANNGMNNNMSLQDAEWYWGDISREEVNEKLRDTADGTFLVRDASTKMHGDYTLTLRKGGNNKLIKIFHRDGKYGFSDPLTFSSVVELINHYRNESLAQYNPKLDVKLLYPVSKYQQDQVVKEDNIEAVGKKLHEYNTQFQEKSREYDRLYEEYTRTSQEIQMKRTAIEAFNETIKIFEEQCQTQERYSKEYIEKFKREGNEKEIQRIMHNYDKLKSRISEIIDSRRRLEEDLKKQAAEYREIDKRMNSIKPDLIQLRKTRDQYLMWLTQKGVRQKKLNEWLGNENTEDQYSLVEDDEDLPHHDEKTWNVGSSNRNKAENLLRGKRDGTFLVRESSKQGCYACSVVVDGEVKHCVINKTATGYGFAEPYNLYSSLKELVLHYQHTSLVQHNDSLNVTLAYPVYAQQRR
Description: as §1

PI3K α = molecular target: T2, PI3K α (Homo sapiens, UniProt P42336); test: In vitro IC50, PI3K α; assay type: biochemical
T2 construct: purchased Upstate
T2 sequence (P42336 whole entry): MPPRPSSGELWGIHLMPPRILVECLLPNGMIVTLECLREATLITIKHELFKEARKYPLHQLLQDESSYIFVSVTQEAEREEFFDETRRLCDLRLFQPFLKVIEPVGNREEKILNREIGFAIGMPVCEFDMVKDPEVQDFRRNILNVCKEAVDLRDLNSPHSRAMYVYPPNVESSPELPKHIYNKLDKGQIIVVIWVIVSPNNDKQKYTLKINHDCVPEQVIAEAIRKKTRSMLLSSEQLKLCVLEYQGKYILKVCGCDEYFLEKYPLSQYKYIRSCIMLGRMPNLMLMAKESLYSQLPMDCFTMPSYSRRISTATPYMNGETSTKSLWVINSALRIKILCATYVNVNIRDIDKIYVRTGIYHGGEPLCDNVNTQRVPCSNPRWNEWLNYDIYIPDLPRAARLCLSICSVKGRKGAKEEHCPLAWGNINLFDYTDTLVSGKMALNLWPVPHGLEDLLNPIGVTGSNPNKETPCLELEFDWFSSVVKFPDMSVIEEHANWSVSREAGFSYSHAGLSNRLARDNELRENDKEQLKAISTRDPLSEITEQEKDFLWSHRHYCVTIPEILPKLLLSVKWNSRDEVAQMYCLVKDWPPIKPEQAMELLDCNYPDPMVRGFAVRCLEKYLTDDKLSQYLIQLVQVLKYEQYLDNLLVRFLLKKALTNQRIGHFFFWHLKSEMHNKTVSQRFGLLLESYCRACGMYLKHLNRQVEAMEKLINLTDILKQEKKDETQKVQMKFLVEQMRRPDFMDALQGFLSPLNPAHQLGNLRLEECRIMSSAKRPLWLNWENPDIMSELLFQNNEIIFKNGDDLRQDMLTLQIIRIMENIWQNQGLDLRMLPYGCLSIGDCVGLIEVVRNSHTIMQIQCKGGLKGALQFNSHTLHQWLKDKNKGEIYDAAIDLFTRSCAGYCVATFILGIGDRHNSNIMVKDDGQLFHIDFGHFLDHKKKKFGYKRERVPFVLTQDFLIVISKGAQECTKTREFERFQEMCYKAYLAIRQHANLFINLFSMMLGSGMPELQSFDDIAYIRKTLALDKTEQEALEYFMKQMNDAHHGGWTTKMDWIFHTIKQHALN
T2 sequence (P27986 whole entry partner): as the sequence (P27986 whole entry partner) above
Description: as §1

B cell = B cell proliferation; assay type: cell-based
PI3K β = PI3K β (Homo sapiens, UniProt P42338); test: In vitro IC50, PI3K β; assay type: biochemical
Chain of PI3K β (P42338 whole entry): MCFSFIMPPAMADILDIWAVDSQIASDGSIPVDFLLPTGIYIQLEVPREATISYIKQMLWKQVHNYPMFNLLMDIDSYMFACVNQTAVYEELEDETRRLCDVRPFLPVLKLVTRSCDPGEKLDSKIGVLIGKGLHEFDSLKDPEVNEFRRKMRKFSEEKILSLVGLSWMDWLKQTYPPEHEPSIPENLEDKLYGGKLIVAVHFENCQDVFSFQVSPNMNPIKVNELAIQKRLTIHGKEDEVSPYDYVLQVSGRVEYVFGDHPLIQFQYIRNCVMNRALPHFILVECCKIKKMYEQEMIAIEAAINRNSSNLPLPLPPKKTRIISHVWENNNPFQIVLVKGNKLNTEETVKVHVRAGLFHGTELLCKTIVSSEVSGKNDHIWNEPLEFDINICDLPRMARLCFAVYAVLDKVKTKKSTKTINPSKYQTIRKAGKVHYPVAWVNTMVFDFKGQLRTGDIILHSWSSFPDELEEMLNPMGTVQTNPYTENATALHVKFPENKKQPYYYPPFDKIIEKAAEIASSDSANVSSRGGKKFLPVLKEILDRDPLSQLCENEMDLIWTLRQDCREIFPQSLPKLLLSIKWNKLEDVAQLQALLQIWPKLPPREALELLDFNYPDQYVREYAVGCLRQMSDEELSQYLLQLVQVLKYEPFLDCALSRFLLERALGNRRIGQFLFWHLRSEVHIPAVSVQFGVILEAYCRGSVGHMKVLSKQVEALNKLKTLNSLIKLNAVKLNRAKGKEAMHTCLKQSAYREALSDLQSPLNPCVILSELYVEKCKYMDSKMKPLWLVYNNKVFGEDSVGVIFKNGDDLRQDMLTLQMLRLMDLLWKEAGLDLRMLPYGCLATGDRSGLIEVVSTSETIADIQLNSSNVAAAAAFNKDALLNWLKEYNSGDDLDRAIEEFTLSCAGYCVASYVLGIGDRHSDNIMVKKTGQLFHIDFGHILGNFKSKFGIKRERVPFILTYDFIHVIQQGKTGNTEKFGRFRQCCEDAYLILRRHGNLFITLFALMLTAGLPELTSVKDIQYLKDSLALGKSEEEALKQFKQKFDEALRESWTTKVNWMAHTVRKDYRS
Description: as §1

T1 sequence (P48736 whole entry): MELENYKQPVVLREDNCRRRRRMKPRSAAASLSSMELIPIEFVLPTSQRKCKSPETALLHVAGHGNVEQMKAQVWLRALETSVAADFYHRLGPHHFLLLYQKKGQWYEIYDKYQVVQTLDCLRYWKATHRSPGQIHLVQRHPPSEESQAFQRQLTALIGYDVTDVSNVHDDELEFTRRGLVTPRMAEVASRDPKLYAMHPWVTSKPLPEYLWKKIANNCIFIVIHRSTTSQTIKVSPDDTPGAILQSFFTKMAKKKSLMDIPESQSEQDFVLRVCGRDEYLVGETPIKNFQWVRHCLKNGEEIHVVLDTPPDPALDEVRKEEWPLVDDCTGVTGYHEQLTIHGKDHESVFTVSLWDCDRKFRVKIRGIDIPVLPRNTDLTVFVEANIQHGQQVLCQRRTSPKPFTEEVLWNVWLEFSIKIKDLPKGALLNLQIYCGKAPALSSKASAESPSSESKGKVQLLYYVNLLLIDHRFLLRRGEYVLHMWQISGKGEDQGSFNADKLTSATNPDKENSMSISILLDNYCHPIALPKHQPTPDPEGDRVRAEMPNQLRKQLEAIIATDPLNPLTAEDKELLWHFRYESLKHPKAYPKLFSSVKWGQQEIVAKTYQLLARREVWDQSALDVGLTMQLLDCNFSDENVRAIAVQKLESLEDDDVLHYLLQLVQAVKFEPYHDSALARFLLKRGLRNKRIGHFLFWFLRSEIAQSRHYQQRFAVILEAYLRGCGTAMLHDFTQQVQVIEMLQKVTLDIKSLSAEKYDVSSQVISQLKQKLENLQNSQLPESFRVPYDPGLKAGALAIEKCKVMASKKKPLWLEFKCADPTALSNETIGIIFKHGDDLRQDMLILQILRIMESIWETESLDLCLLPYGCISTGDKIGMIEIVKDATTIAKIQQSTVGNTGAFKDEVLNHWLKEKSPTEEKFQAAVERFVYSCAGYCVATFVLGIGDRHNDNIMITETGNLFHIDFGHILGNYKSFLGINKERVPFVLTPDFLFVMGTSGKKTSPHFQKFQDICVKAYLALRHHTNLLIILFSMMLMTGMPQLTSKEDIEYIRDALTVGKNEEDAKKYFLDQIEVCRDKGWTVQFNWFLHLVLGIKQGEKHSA

SMILES | IC50 (PI3K γ) | IC50 (PI3K δ) | IC50 (PI3K α) | EC50 (B cell) | IC50 (PI3K β)
Cc1ccccc1-n1c(Cn2nc(I)c3c(N)ncnc32)cc2cccc(C)c2c1=O [Compound 6] | < 0.1 µM | < 0.1 µM | > 10 µM | < 0.1 µM | –
CC(=O)Nc1nc2ccc(-c3nn(Cc4cc5cccc(C)c5c(=O)n4-c4ccccc4C)c4ncnc(N)c34)cc2o1 [Compound 266] | < 0.1 µM | < 0.1 µM | > 10 µM | – | > 10 µM
Cc1cccc2cc([C@H](C)Nc3nc(N)ncc3Cl)n(C3CC3)c(=O)c12 [Compound 267] | < 1 µM | < 0.1 µM | > 10 µM | – | < 1 µM
Cc1cccc2cc([C@H](C)Nc3nc(Cl)nc4[nH]cnc34)n(C3CC3)c(=O)c12 [Compound 268] | < 1 µM | < 0.1 µM | > 10 µM | – | < 0.1 µM
CC(=O)Nc1nc2ccc(-c3nn(Cc4cc5cccc(C)c5c(=O)n4-c4ccccc4)c4ncnc(N)c34)cc2o1 [Compound 269] | < 1 µM | < 1 µM | < 10 µM | – | < 10 µM
C[C@H](Nc1ncnc2[nH]cnc12)c1cc2cccc(Cl)c2c(=O)n1C1CC1 [Compound 270] | < 0.1 µM | < 0.1 µM | < 1 µM | – | < 0.1 µM
Cc1cccc2cc([C@H](C)Nc3nc(N)ncc3F)n(-c3ccccc3)c(=O)c12 [Compound 271] | < 1 µM | < 0.1 µM | > 10 µM | – | > 10 µM
Cc1cccc2cc([C@H](C)Nc3ncnc4[nH]cc(Br)c34)n(C3CC3)c(=O)c12 [Compound 272] | < 0.1 µM | < 0.1 µM | < 1 µM | – | < 0.1 µM
Cc1cccc2cc([C@H](C)Nc3ncnc4[nH]ccc34)n(C3CC3)c(=O)c12 [Compound 273] | < 0.1 µM | < 0.1 µM | < 10 µM | – | < 0.1 µM
CC(=O)Nc1nc2cc(-c3nn(Cc4cc5cccc(C)c5c(=O)n4-c4ccccc4C)c4ncnc(N)c34)ccc2s1 [Compound 274] | < 10 µM | < 1 µM | > 10 µM | – | < 10 µM
CC(=O)Nc1nc2cc(-c3nn(Cc4cc5cccc(C)c5c(=O)n4-c4ccccc4)c4ncnc(N)c34)ccc2s1 [Compound 275] | < 1 µM | < 1 µM | > 10 µM | – | > 10 µM
Cc1ccccc1-n1c(Cn2nc(-c3ccc4sc(N)nc4c3)c3c(N)ncnc32)cc2cccc(C)c2c1=O [Compound 276] | < 0.1 µM | < 0.1 µM | < 1 µM | – | < 1 µM
Cc1cccc2cc(Cn3nc(-c4ccc5sc(N)nc5c4)c4c(N)ncnc43)n(-c3ccccc3)c(=O)c12 [Compound 277] | < 0.1 µM | < 0.1 µM | < 1 µM | – | < 1 µM
Cc1cccc2cc([C@H](C)Nc3ncnc4[nH]cc(F)c34)n(C3CC3)c(=O)c12 [Compound 278] | < 0.1 µM | < 0.1 µM | < 1 µM | – | < 0.1 µM
Cc1cccc2cc([C@H](C)Nc3nc(F)nc4[nH]cnc34)n(C3CC3)c(=O)c12 [Compound 279] | < 1 µM | < 0.1 µM | < 10 µM | – | < 0.1 µM
Cc1cccc2cc([C@H](C)Nc3ncnc4[nH]c(Cl)nc34)n(C3CC3)c(=O)c12 [Compound 280] | > 10 µM | > 10 µM | > 10 µM | – | > 10 µM
Cc1cccc2cc([C@H](C)Nc3nc(N)ncc3F)n(C3CC3)c(=O)c12 [Compound 281] | > 10 µM | < 10 µM | > 10 µM | – | < 10 µM
Cc1cccc2cc([C@H](C)Nc3nc(N)ncc3C(N)=O)n(C3CC3)c(=O)c12 [Compound 282] | > 10 µM | > 10 µM | > 10 µM | – | > 10 µM
Cc1cccc2cc([C@H](C)Nc3cc(N)nc(Cl)n3)n(C3CC3)c(=O)c12 [Compound 283] | > 10 µM | > 10 µM | > 10 µM | – | > 10 µM
Cc1cccc2cc([C@H](C)Nc3cc(N)nc(N)n3)n(C3CC3)c(=O)c12 [Compound 284] | < 10 µM | < 10 µM | > 10 µM | – | > 10 µM
Cc1cccc2cc([C@H](C)Nc3cc(N)nc(Cl)n3)n(-c3ccccc3)c(=O)c12 [Compound 285] | < 10 µM | < 1 µM | > 10 µM | – | > 10 µM

SMILES | IC50 (PI3K γ) | IC50 (PI3K δ) | IC50 (PI3K α) | EC50 (B cell) | IC50 (PI3K β)
Cc1cccc2cc([C@H](C)Nc3cc(N)nc(N)n3)n(-c3ccccc3)c(=O)c12 [Compound 286] | < 1 µM | < 1 µM | > 10 µM | – | > 10 µM
Cc1cccc2cc([C@H](C)Nc3ncnc4[nH]cc(C(N)=O)c34)n(C3CC3)c(=O)c12 [Compound 287] | < 0.1 µM | < 0.1 µM | < 1 µM | – | < 0.1 µM
Cc1cccc2cc([C@H](C)Nc3ncnc4[nH]cc(C(N)=O)c34)n(-c3ccccc3)c(=O)c12 [Compound 288] | < 0.1 µM | < 0.1 µM | < 1 µM | – | < 0.1 µM
Cc1cccc2cc([C@H](C)Nc3ncnc4[nH]cc(C#N)c34)n(C3CC3)c(=O)c12 [Compound 289] | < 0.1 µM | < 0.1 µM | < 1 µM | – | < 0.1 µM
Cc1cccc2cc([C@H](C)Nc3ncnc4[nH]cnc34)n(-c3cccc(F)c3)c(=O)c12 [Compound 290] | < 0.1 µM | < 0.1 µM | > 10 µM | – | < 1 µM
Cc1cccc2cc([C@H](C)Nc3ncnc4[nH]nc(Cl)c34)n(C3CC3)c(=O)c12 [Compound 293] | < 1 µM | < 0.1 µM | > 10 µM | – | < 1 µM
CCc1nn(Cc2cc3cccc(C)c3c(=O)n2-c2ccccc2C)c2ncnc(N)c12 [Compound 294] | < 10 µM | < 0.1 µM | > 10 µM | – | > 10 µM
Cc1ccccc1-n1c(Cn2nc(-c3ccc4nc(N)[nH]c4c3)c3c(N)ncnc32)cc2cccc(C)c2c1=O [Compound 295] | < 0.1 µM | < 0.1 µM | < 10 µM | – | < 10 µM
CC(=O)Nc1nc2ccc(-c3nn(Cc4cc5cccc(C)c5c(=O)n4-c4ccccc4C)c4ncnc(N)c34)cc2[nH]1 [Compound 296] | < 0.1 µM | < 0.1 µM | < 10 µM | – | < 10 µM
Cc1ccccc1-n1c(Cn2nc(C(N)=O)c3c(N)ncnc32)cc2cccc(C)c2c1=O [Compound 298] | < 1 µM | < 1 µM | > 10 µM | – | < 10 µM
COC(=O)c1nn(CC2=Cc3cccc(C)c3C(=O)C2c2ccccc2C)c2ncnc(N)c12 (stereo not drawn) [Compound 299] | < 10 µM | < 1 µM | > 10 µM | – | > 10 µM
Cc1ccccc1-n1c(Cn2nc(C(=O)NO)c3c(N)ncnc32)cc2cccc(C)c2c1=O [Compound 300] | < 1 µM | < 1 µM | > 10 µM | – | < 10 µM
Cc1cccc2cc(Cn3nc(C(F)F)c4c(N)ncnc43)n(-c3ccccc3)c(=O)c12 [Compound 308] | < 1 µM | < 0.1 µM | > 10 µM | – | < 10 µM
Cc1cccc2cc(Cn3nc(C4=CCOCC4)c4c(N)ncnc43)n(-c3ccccc3)c(=O)c12 [Compound 315] | > 10 µM | > 10 µM | > 10 µM | – | > 10 µM
C=C(C)c1nn(Cc2cc3cccc(C)c3c(=O)n2-c2ccccc2)c2ncnc(N)c12 [Compound 316] | < 1 µM | < 0.1 µM | > 10 µM | – | < 10 µM
Cc1cccc2cc(Cn3nc(C(C)C)c4c(N)ncnc43)n(-c3ccccc3)c(=O)c12 [Compound 317] | > 10 µM | < 10 µM | > 10 µM | – | > 10 µM
Cc1cccc2cc(C(C)Nc3nc(N)nc4[nH]cnc34)n(-c3ccccc3)c(=O)c12 (stereo not drawn) [Compound 320] | < 0.1 µM | < 0.1 µM | < 1 µM | – | < 0.1 µM
Cc1cccc2cc(C(C)Nc3nc(O)ncc3N)n(-c3ccccc3)c(=O)c12 (stereo not drawn) [Compound 321] | > 10 µM | > 10 µM | > 10 µM | – | > 10 µM
Cc1cccc2cc([C@H](C)Nc3nc(N)nc4[nH]cnc34)n(-c3ccccc3)c(=O)c12 [Compound 323] | < 0.1 µM | < 0.1 µM | < 1 µM | – | < 0.1 µM
Cc1cccc2cc([C@H](C)Nc3nc(N)ncc3C(F)(F)F)n(-c3ccccc3)c(=O)c12 [Compound 324] | < 0.1 µM | < 0.1 µM | > 10 µM | – | < 10 µM
Cc1cccc2cc([C@H](C)Nc3ncc(C(F)(F)F)c(N)n3)n(-c3ccccc3)c(=O)c12 [Compound 325] | > 10 µM | < 10 µM | > 10 µM | – | > 10 µM
